Results published in US12077759B2, “Compositions and methods for treating pathologic calcification” (Washington University, priority 2021, dated 2024).

Test system: Wnt/β-catenin pathway
Assay: Treatment of ACLp cells with Wnt agonist SKL2001 (rescue of osteogenesis)
Format: cell-based, human
Details: SKL2001 10 μM
Procedure: In short, 5×10^5 ACLp cells were first treated with KIF26B shRNA or scrambled shRNA for 48 hours and selected by Puromycin for another 48 hours. Afterward, 2×10^5 ACLp cells were seeded in a 12-well plate. Next osteogenesis was induced as above but in addition, SKL2001 (10 μM) dissolved in dimethyl sulfoxide (DMSO, Sigma-Aldrich) or DMSO only (vehicle) was added to cells. The medium was changed 3 times a week. After 7 days of osteogenic induction, the protein levels of active and total β-catenin were detected by Western blot as described above. After culture for 28 days, the Alizarin red staining was performed as above. After 28 days of osteogenic induction, RNA was isolated and expression of AXIN2 and WNT16 was measured using standard methods detailed above.

O=C(NCCCn1ccnc1)c1cc(-c2ccco2)on1 [SKL2001]
decrease of active β-catenin protein levels after KIF26B knockdown (Western blot) (ACLp cells transduced with KIF26B shRNA, 7 days of osteogenic induction): significantly attenuated
decrease in osteogenesis due to KIF26B loss-of-function (Alizarin red staining) (ACLp cells transduced with KIF26B shRNA, 28 days): reverted
AXIN2 mRNA expression (ACLp cells, 28 days of osteogenic induction, vehicle (DMSO) 1.00±0.02, p<0.001): 2.20±0.08
WNT16 mRNA expression (ACLp cells, 28 days of osteogenic induction, vehicle (DMSO) 1.00±0.14, p<0.001): 3.06±0.13
